Results reported in patent publication US20230286973A1, “PROTEIN SECRETION INHIBITORS” (KEZAR LIFE SCIENCES, priority 2020, published 2023).
Where two headings read alike, the source gives them in different places.

Experiments:
[1] = system: PD1-ss+10aa/Gaussia Luciferase; test: Dox-Induced PD1-ss-Gluc Assay; format: cell-based; details: 24 hr Dox induction, 293FRT/TO cells, read-out: 24 hr Dox Inducible PD1ssGluc 293FRT/TO: Mean IC50
Procedure, shortened: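 Flp-In 293 T-REx cells stably carrying a doxycycline-inducible Gaussia luciferase fused to the PD1 signal sequence plus 10 aa were plated the day before. Compound dilutions in DMSO/media containing doxycycline were then added and incubated at 37 °C, 5% CO2. Data for undefined stereochemistry refer to stereoisomer mixtures.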

[2] = system: TNFα-FL/Gaussia Luciferase; test: Dox Induced TNFα-FL-Gluc Assay; format: cell-based; details: for IC50: 24 hr Dox induction, 293FRT/TO cells, read-out: 24 hr Dox Inducible TNFaFLGluc 293FRT/TO: Mean IC50; for 24 hr Dox Inducible TNFaFLGluc 293FRT/TO: TNF/PD1: ratio of TNFaFLGluc IC50 to PD1ssGluc IC50
Procedure, shortened: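 Cell line: stable Flp-In 293 T-REx, TNFα-FL(1-233)-Gaussia luciferase fusion, T-REx-inducible. Plated day -1; compounds in DMSO/media + doxycycline, 37 °C, 5% CO2. Undefined stereocentres = mixture tested.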

[3] = system: HER3-ss+4aa/Gaussia Luciferase; test: Dox-Induced Her3-ss-Gluc Assay; format: cell-based; details: 24 hr Dox induction, 293FRT/TO cells, read-out: 24 hr Dox Inducible Her3(ss + 4)Gluc 293FRT/TO: Mean IC50
Procedure, shortened: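 Flp-In 293 T-REx cells, stable HER3-ss+4aa/Gaussia luciferase insert, hygromycin/blasticidin selected; plated day before; compound in DMSO/media + doxycycline; 37° C., 5% CO2.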

[4] = system: IL-2-FL/Gaussia Luciferase; test: Dox Induced IL2-FL-Gluc Assay; format: cell-based; details: for IC50: 24 hr Dox induction, 293FRT/TO cells, read-out: 24 hr Dox Inducible IL2FLGluc 293FRT/TO: Mean IC50; for 24 hr Dox Inducible IL2FLGluc 293FRT/TO: IL2/PD1: ratio of IL2FLGluc IC50 to PD1ssGluc IC50
Procedure, shortened: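 Stable Flp-In 293 T-REx line, Tet-regulated IL-2 (aa 1-153)–Gaussia luciferase fusion; hygromycin/blasticidin selected. Plated day -1; compound + doxycycline added next day; 37° C, 5% CO2.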

[5] = system: multiple myeloma cell line NCI-H929; test: H929 Cell Viability Assay; format: cell-based, human; details: Homo sapiens, NCI-H929, 48 h, NCI-H929 cells, Celltiter-Glo
Procedure, shortened: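 Cells in RPMI 1640/10% FBS; compound dilutions in DMSO/media; 48 h, 37° C, 5% CO2; CellTiter-Glo luciferase readout for viability.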

[6] = system: multiple myeloma cell line U266B1; test: U266 Cell Viability Assay; format: cell-based, human; details: Homo sapiens, U-266, 48 h, U266B1 cells, Celltiter-Glo
Procedure, shortened: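 Luminescent ATP read-out (CellTiter-Glo) after 48 h compound exposure at 37° C., 5% CO2; cells maintained in RPMI 1640/10% FBS/2 mM glutamine/pen-strep, compounds diluted in DMSO/media.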

[7] = Liver Microsome Stability Assay (rat); details: rat liver microsomes, with NADPH, 1.0 uM compound
Procedure: (§1) Stability of a compound was assessed in the presence of liver microsomes from various sources—mouse, rat, monkey and human liver microsomes. 1.0 uM compound, 0.4% DMSO in 0.1 M Potassium Phosphate with 1.0 mg/mL liver microsomes, were incubated at 37° C. with or without 1 mM NADPH. The samples were quenched at 0, and 30 minutes.

[8] = Liver Microsome Stability Assay (mouse); details: mouse liver microsomes, with NADPH, 1.0 uM compound
Procedure: as §1

[9] = Liver Microsome Stability Assay (human); details: human liver microsomes, with NADPH, 1.0 uM compound
Procedure: as §1

[10] = Liver Microsome Stability Assay (monkey); details: monkey liver microsomes, with NADPH, 1.0 uM compound
Procedure: as §1

[11] = '<=>' given where both are I.A.

Row | IC50 ([1]; mean) [nM] | IC50 ([2]; mean) [nM] | IC50 ([3]; mean) [nM] | IC50 ([4]; mean) [nM] | EC50 [5] [nM] | EC50 [6] [nM] | Liver Microsome Stability (Multiple Species): Rat - % Remaining after 30 min w/NADPH [7] [%] | Liver Microsome Stability (Multiple Species): Mouse - % Remaining after 30 min w/NADPH [8] [%] | Liver Microsome Stability (Multiple Species): Human - % Remaining after 30 min w/NADPH [9] [%] | Liver Microsome Stability (Multiple Species): Monkey - % Remaining after 30 min w/NADPH [10] [%] | IC50 [1] [nM] | IC50 [2] [nM] | IC50 [3] [nM] | IC50 [4] [nM] | SMILES | 24 hr Dox Inducible TNFaFLGluc 293FRT/TO: TNF/PD1 [2, 11] | 24 hr Dox Inducible IL2FLGluc 293FRT/TO: IL2/PD1 [4, 11] | 24 hr Dox Inducible TNFaFLGluc 293FRT/TO: TNF/PD1 [2] | 24 hr Dox Inducible IL2FLGluc 293FRT/TO: IL2/PD1 [4]
1 | 473 | 8110 | 1120 | 2590 | 17300 | > 25000 | 0.38 | 0.18 | 0.09 | 0.26 |  |  |  |  | COc1ccc(O[C@@H]2CC[C@H](c3csc(NC(=O)c4cccn4Cc4ccncc4)n3)C2)nc1 [Compound E42, N-(4-((1S,3R)-3-((5-methoxypyridin-2-yl)oxy)cyclopentyl)thiazol-2-yl)-1-(pyridin-4-ylmethyl)-1H-pyrrole-2-carboxamide] | 17.2 | 5.5 |  | 
2 |  |  |  |  | 1020 | > 25000 | 8.6 | 13 | 3.96 | 0.43 | 36.1 | 551 | 87.8 | 54.9 | O=C(Nc1nc([C@H]2CCCN2c2ccc(C3(O)CCC3)cc2)cs1)c1cccn1Cc1ccnc(F)c1 [Compound A114, (R)-1-((2-fluoropyridin-4-yl)methyl)-N-(4-(1-(4-(1-hydroxycyclobutyl)phenyl)pyrrolidin-2-yl)thiazol-2-yl)-1H-pyrrole-2-carboxamide] |  |  | 15.2 | 1.5
3 |  |  |  |  | > 24300 | > 25000 | 2.51 | 11.5 | 0.2 | 2.64 | 321 | > 25000 | > 25000 | > 25000 | O=C(Nc1nc(/C=C/c2cn3c(n2)CCC3)cs1)c1cccn1Cc1ccnc(F)c1 [Compound B62, (E)-N-(4-(2-(6,7-dihydro-5H-pyrrolo[1,2-a]imidazol-2-yl)vinyl)thiazol-2-yl)-1-((2-fluoropyridin-4-yl)methyl)-1H-pyrrole-2-carboxamide] |  |  | >77.9 | >78
4 |  |  |  |  | 19900 | > 24200 | 16.3 | 23.2 | 0.1 | 0.19 | 42.1 | > 25000 | > 25000 | > 22600 | CC(C)n1cnc(/C=C/c2csc(NC(=O)c3cccn3Cc3ccnc(F)c3)n2)c1 [Compound B45, (E)-1-((2-fluoropyridin-4-yl)methyl)-N-(4-(2-(1-isopropyl-1H-imidazol-4-yl)vinyl)thiazol-2-yl)-1H-pyrrole-2-carboxamide] |  |  | >593 | >540
5 |  |  |  |  | 3180 | > 25000 | 35 | 12.1 | 1.43 | 0.47 | 52 | 330 | 60.4 | 116 | CC(=O)N[C@@H](C)c1ccc(N2CCC[C@@H]2c2csc(NC(=O)c3cccn3Cc3ccnc(F)c3)n2)cc1 [Compound A69, N-(4-((R)-1-(4-((S)-1-acetamidoethyl)phenyl)pyrrolidin-2-yl)thiazol-2-yl)-1-((2-fluoropyridin-4-yl)methyl)-1H-pyrrole-2-carboxamide] |  |  | 6.35 | 2.2
